Assay results reported in PubChem BioAssay AID1963958 (Molecular Pharmacology Branch, DTP, NCI, 2024).

Test system: MDA-MB-231 multicell spheroids, viability
Test: Anticancer human tumor MDA-MB-231 cell line growth inhibition [PI3K];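 note: spheroids exposed to agents for seven days before reading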;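 for viability, T/C: percent of vehicle control luminescence with DMSO treated spheroids as 100%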
Conditions: for IC50: curve of first compound; for viability, T/C: stronger effect = lower value
In short: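 Spheroid viability read-out. Co-cultures contained the tumor line plus HUVEC and human MSCs. Each agent was paired with a PI3K inhibitor (inavolisib, alpelisib, duvelisib, copanlisib) across half-log dilutions starting at clinical Cmax, or at 10 microM when Cmax was unknown.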

[1] = second compound 0.0316 µM, first compound 0.0316 µM
[2] = second compound 0.0316 µM, first compound 0.1 µM
[3] = second compound 0.0316 µM, first compound 0.316 µM
[4] = second compound 0.0316 µM, first compound 1 µM
[5] = second compound 0.0316 µM, first compound 3.16 µM
[6] = second compound 0.0316 µM, first compound 10 µM
[7] = second compound 0.1 µM, first compound 0.0316 µM
[8] = second compound 0.1 µM, first compound 0.1 µM
[9] = second compound 0.1 µM, first compound 0.316 µM
[10] = second compound 0.1 µM, first compound 1 µM
[11] = second compound 0.1 µM, first compound 3.16 µM
[12] = second compound 0.1 µM, first compound 10 µM
[13] = second compound 0.316 µM, first compound 0.0316 µM
[14] = second compound 0.316 µM, first compound 0.1 µM
[15] = second compound 0.316 µM, first compound 0.316 µM
[16] = second compound 0.316 µM, first compound 1 µM
[17] = second compound 0.316 µM, first compound 3.16 µM
[18] = second compound 0.316 µM, first compound 10 µM
[19] = second compound 1 µM, first compound 0.0316 µM
[20] = second compound 1 µM, first compound 0.1 µM
[21] = second compound 1 µM, first compound 0.316 µM
[22] = second compound 1 µM, first compound 1 µM
[23] = second compound 1 µM, first compound 3.16 µM
[24] = second compound 1 µM, first compound 10 µM
[25] = second compound 3.16 µM, first compound 0.0316 µM
[26] = second compound 3.16 µM, first compound 0.1 µM
[27] = second compound 3.16 µM, first compound 0.316 µM
[28] = second compound 3.16 µM, first compound 1 µM
[29] = second compound 3.16 µM, first compound 3.16 µM
[30] = second compound 3.16 µM, first compound 10 µM
[31] = second compound 10 µM, first compound 0.0316 µM
[32] = second compound 10 µM, first compound 0.1 µM
[33] = second compound 10 µM, first compound 0.316 µM
[34] = second compound 10 µM, first compound 1 µM
[35] = second compound 10 µM, first compound 3.16 µM
[36] = second compound 10 µM, first compound 10 µM

With `CC1(C)CCC(CN2CCN(c3ccc(C(=O)NS(=O)(=O)c4ccc(NCC5CCOCC5)c([N+](=O)[O-])c4)c(Oc4cnc5[nH]ccc5c4)c3)CC2)=C(c2ccc(Cl)cc2)C1` + CC(Nc1ncnc2nc[nH]c12)c1cc2cccc(Cl)c2c(=O)n1-c1ccccc1 the IC50 (second compound 0.0316 µM) was 7.72 µM, the IC50 (second compound 0.1 µM) was 6.9 µM and the IC50 (second compound 0.316 µM) was 7.92 µM. It also gave an IC50 (second compound 1 µM) of 6.18 µM, an IC50 (second compound 3.16 µM) of 5.26 µM and an IC50 (second compound 10 µM) of 3.33 µM. For the same molecule, the viability, T/C [1] was 104%, the viability, T/C [2] was 96.9% and the viability, T/C [3] was 110%. It also gave a viability, T/C [4] of 102%, a viability, T/C [5] of 112% and a viability, T/C [6] of 33.9%. For the same molecule, the viability, T/C [7] was 92.5%, the viability, T/C [8] was 92.1% and the viability, T/C [9] was 100%. The viability, T/C [10] was 107%, the viability, T/C [11] was 103% and the viability, T/C [12] was 26.6%. For the same molecule, the viability, T/C [13] was 90.5%, the viability, T/C [14] was 99% and the viability, T/C [15] was 105%. For the same molecule, the viability, T/C [16] was 98.2%, the viability, T/C [17] was 108% and the viability, T/C [18] was 37.1%. For the same molecule, the viability, T/C [19] was 85.9%, the viability, T/C [20] was 86.6% and the viability, T/C [21] was 75.6%. For the same molecule, the viability, T/C [22] was 92.4%, the viability, T/C [23] was 91.8% and the viability, T/C [24] was 23.7%. It also gave a viability, T/C [25] of 70%, a viability, T/C [26] of 64.7% and a viability, T/C [27] of 65.3%. For the same molecule, the viability, T/C [28] was 66.6%, the viability, T/C [29] was 72.2% and the viability, T/C [30] was 27.7%. It also gave a viability, T/C [31] of 50.6%, a viability, T/C [32] of 50.4% and a viability, T/C [33] of 49.6%. The viability, T/C [34] was 50.5%, the viability, T/C [35] was 53.7% and the viability, T/C [36] was 28.4%.
`CCCS(=O)(=O)Nc1ccc(F)c(C(=O)c2c[nH]c3ncc(-c4ccc(Cl)cc4)cc23)c1F` + CC(Nc1ncnc2nc[nH]c12)c1cc2cccc(Cl)c2c(=O)n1-c1ccccc1 showed an IC50 (second compound 0.0316 µM) of 5.6 µM, an IC50 (second compound 0.1 µM) of 5.14 µM and an IC50 (second compound 0.316 µM) of 4.67 µM. The IC50 (second compound 1 µM) was 3.79 µM, the IC50 (second compound 3.16 µM) was 1.93 µM and the IC50 (second compound 10 µM) was 0.372 µM. It also gave a viability, T/C [1] of 114%, a viability, T/C [2] of 109% and a viability, T/C [3] of 102%. The viability, T/C [4] was 89.8%, the viability, T/C [5] was 66.8% and the viability, T/C [6] was 32.7%. It also gave a viability, T/C [7] of 113%, a viability, T/C [8] of 108% and a viability, T/C [9] of 96.5%. The viability, T/C [10] was 82.8%, the viability, T/C [11] was 61.2% and the viability, T/C [12] was 34.5%. The viability, T/C [13] was 85.8%, the viability, T/C [14] was 95.3% and the viability, T/C [15] was 99.2%. For the same molecule, the viability, T/C [16] was 79.4%, the viability, T/C [17] was 60.1% and the viability, T/C [18] was 32.3%. For the same molecule, the viability, T/C [19] was 95.5%, the viability, T/C [20] was 82.9% and the viability, T/C [21] was 77.4%. It also gave a viability, T/C [22] of 71.9%, a viability, T/C [23] of 54.4% and a viability, T/C [24] of 30.5%. It also gave a viability, T/C [25] of 68.4%, a viability, T/C [26] of 70.9% and a viability, T/C [27] of 67.2%. For the same molecule, the viability, T/C [28] was 56.5%, the viability, T/C [29] was 44.6% and the viability, T/C [30] was 26.4%. It also gave a viability, T/C [31] of 52.8%, a viability, T/C [32] of 55% and a viability, T/C [33] of 52.1%. The viability, T/C [34] was 43.3%, the viability, T/C [35] was 37.7% and the viability, T/C [36] was 23%.
`C[C@@H](NC(=O)c1ncnc(N)c1Cl)c1ncc(C(=O)Nc2cc(C(F)(F)F)c(Cl)cn2)s1` + CC(Nc1ncnc2nc[nH]c12)c1cc2cccc(Cl)c2c(=O)n1-c1ccccc1 gave an IC50 (second compound 0.0316 µM) greater than 10 µM, an IC50 (second compound 0.1 µM) greater than 10 µM and an IC50 (second compound 0.316 µM) greater than 10 µM. The IC50 (second compound 1 µM) was 8.16 µM, the IC50 (second compound 3.16 µM) was 1.38 µM and the IC50 (second compound 10 µM) was 0.334 µM. The viability, T/C [1] was 142%, the viability, T/C [2] was 120% and the viability, T/C [3] was 110%. The viability, T/C [4] was 85.6%, the viability, T/C [5] was 75.6% and the viability, T/C [6] was 62.6%. The viability, T/C [7] was 140%, the viability, T/C [8] was 119% and the viability, T/C [9] was 106%. The viability, T/C [10] was 89.9%, the viability, T/C [11] was 72.7% and the viability, T/C [12] was 62.4%. The viability, T/C [13] was 125%, the viability, T/C [14] was 124% and the viability, T/C [15] was 106%. It also gave a viability, T/C [16] of 80.5%, a viability, T/C [17] of 68% and a viability, T/C [18] of 55.9%. For the same molecule, the viability, T/C [19] was 114%, the viability, T/C [20] was 101% and the viability, T/C [21] was 79.1%. It also gave a viability, T/C [22] of 73.8%, a viability, T/C [23] of 60.1% and a viability, T/C [24] of 46.8%. For the same molecule, the viability, T/C [25] was 95.5%, the viability, T/C [26] was 79.5% and the viability, T/C [27] was 60.6%. The viability, T/C [28] was 51.7%, the viability, T/C [29] was 47.7% and the viability, T/C [30] was 37.3%. It also gave a viability, T/C [31] of 72%, a viability, T/C [32] of 58.6% and a viability, T/C [33] of 47.8%. It also gave a viability, T/C [34] of 45.5%, a viability, T/C [35] of 33.6% and a viability, T/C [36] of 26.1%.
